Biological target: T1, AsPC-1 HiBiT-KRASG12D (Homo sapiens, UniProt P01116, G12D)
T1 construct: insert the HiBiT tag onto the N-terminus of one or more of the endogenous KRAS alleles; endogenous in cells; host or cells: AsPC-1 (ATCC CRL-1682), CRISPR-Cas9 knock-in clone, one tagged allele
Assay: HiBiT degradation assay (G12D), AsPC-1 HiBiT-KRASG12D cells
Assay type: cell-based
Conditions: 24 hours treatment; for Dmax: ASPC1, AsPC-1 HiBiT-KRASG12D cells, maximum degradation observed; for DC50: AsPC-1 HiBiT-KRASG12D cells, HiBiT luminescence
How it was run: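 24 h cmpd treatment, 37° C/5% CO2, AsPC-1 HiBiT-KRASG12D clone (CRISPR N-term tag). Alamar blue 1×, 4 h, fluorescence. PBS wash, Nano-Glo HiBiT lytic reagent, 45 min RT, luminescence. Triplicates.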

T1 sequence (P01116 1-188 isoform P01116-2 G12D): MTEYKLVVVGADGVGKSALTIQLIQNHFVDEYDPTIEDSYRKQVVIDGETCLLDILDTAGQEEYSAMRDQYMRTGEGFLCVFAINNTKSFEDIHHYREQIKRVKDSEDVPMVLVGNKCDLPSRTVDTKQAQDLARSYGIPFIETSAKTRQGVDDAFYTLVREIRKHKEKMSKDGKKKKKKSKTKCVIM

Row | Structure (SMILES) | Dmax | DC50
1 | CCc1cccc2cc(O)cc(-c3ncc4c(N5CC6CCC(C5)N6)nc(OCCN5CC[C@@H]6[C@@H](CCN6c6cc([C@H](C(=O)N7C[C@H](O)C[C@H]7C(=O)N[C@@H](C)c7ccc(-c8scnc8C)cc7)C(C)C)on6)C5)nc4c3F)c12 (relative stereo) [Compound 74, (2S,4R)-1-[(2R*)-2-{3-[(3aR**,7aR***)-5-{2-[(4-{3,8-diazabicyclo[3.2.1]octan-3-yl}-7-(8-ethyl-3-hydroxynaphthalen-1-yl)-8-fluoropyrido[4,3-d]pyrimidin-2-yl)oxy]ethyl}-octahydro-1H-pyrrolo[3,2-c]pyridin-1-yl]-1,2-oxazol-5-yl}-3-methylbutanoyl]-4-hydroxy-N-[(1S)-1-[4-(4-methyl-1,3-thiazol-5-yl)phenyl]ethyl]pyrrolidine-2-carboxamide] | 80 to 100% | < 600 nM
2 | CCc1cccc2cccc(-c3ncc4c(N5CC6CCC(C5)N6)nc(OC[C@@H]5CC[C@@H](COC(=O)N6CC(Oc7cc([C@H](C(=O)N8C[C@H](O)C[C@H]8C(=O)N[C@@H](C)c8ccc(-c9scnc9C)cc8)C(C)C)on7)C6)N5C)nc4c3F)c12 [Compound 223, [(2S,5S)-5-{[(4-{3,8-diazabicyclo[3.2.1]octan-3-yl}-7-(8-ethylnaphthalen-1-yl)-8-fluoropyrido[4,3-d]pyrimidin-2-yl)oxy]methyl}-1-methylpyrrolidin-2-yl]methyl 3-({5-[(2R)-1-[(2S,4R)-4-hydroxy-2-{[(1S)-1-[4-(4-methyl-1,3-thiazol-5-yl)phenyl]ethyl]carbamoyl}pyrrolidin-1-yl]-3-methyl-1-oxobutan-2-yl]-1,2-oxazol-3-yl}oxy)azetidine-1-carboxylate] | 80 to 100% | < 600 nM
3 | CCc1cccc2cc(O)cc(-c3ncc4c(N5C[C@H]6CC[C@@H](C5)N6)nc(OC[C@@H]5CC[C@@H](COC(=O)N6CC7(C6)CN(c6cc([C@H](C(=O)N8C[C@H](O)C[C@H]8C(=O)N[C@@H](C)c8ccc(-c9scnc9C)cc8)C(C)C)on6)C7)N5C)nc4c3F)c12 [Compound 256, ((2S,5S)-5-(((4-((1R,5S)-3,8-diazabicyclo[3.2.1]octan-3-yl)-7-(8-ethyl-3-hydroxynaphthalen-1-yl)-8-fluoropyrido[4,3-d]pyrimidin-2-yl)oxy)methyl)-1-methylpyrrolidin-2-yl)methyl 6-(5-((R)-1-((2S,4R)-4-hydroxy-2-(((S)-1-(4-(4-methylthiazol-5-yl)phenyl)ethyl)carbamoyl)pyrrolidin-1-yl)-3-methyl-1-oxobutan-2-yl)isoxazol-3-yl)-2,6-diazaspiro[3.3]heptane-2-carboxylate] | 80 to 100% | < 600 nM
4 | CCc1cccc2cc(O)cc(-c3ncc4c(N5CC6CCC(C5)N6)nc(OCCN5CCC(CC6CN(c7cc([C@@H](C(=O)N8C[C@H](O)C[C@H]8C(=O)N[C@@H](C)c8ccc(-c9ccnn9C)cc8)C(C)C)on7)C6)CC5)nc4c3F)c12 (single isomer, unassigned) [Compound 265, (2S,4R)-1-[(2R*)-2-(3-{3-[(1-{2-[(4-{3,8-diazabicyclo[3.2.1]octan-3-yl}-7-(8-ethyl-3-hydroxynaphthalen-1-yl)-8-fluoropyrido[4,3-d]pyrimidin-2-yl)oxy]ethyl}piperidin-4-yl)methyl]azetidin-1-yl}-1,2-oxazol-5-yl)-3-methylbutanoyl]-4-hydroxy-N-[(1S)-1-[4-(1-methyl-1H-pyrazol-5-yl)phenyl]ethyl]pyrrolidine-2-carboxamide] | 60 to 80% | 1000 to 3000 nM
5 | CCc1cccc2cc(O)cc(-c3ncc4c(N5CC6CCC(C5)N6)nc(OCCN5CCC(CN6CCN(c7cc([C@H](C(=O)N8C[C@H](O)C[C@H]8C(=O)N[C@@H](C)c8ccc(-c9ccnn9C)cc8)C(C)C)on7)CC6)CC5)nc4c3F)c12 [Compound 191, (2S,4R)-1-[(2R)-2-(3-{4-[(1-{2-[(4-{3,8-diazabicyclo[3.2.1]octan-3-yl}-7-(8-ethyl-3-hydroxynaphthalen-1-yl)-8-fluoropyrido[4,3-d]pyrimidin-2-yl)oxy]ethyl}piperidin-4-yl)methyl]piperazin-1-yl}-1,2-oxazol-5-yl)-3-methylbutanoyl]-4-hydroxy-N-[(1S)-1-[4-(1-methyl-1H-pyrazol-5-yl)phenyl]ethyl]pyrrolidine-2-carboxamide] | 80 to 100% | < 600 nM
6 | CCc1cccc2cc(O)cc(-c3ncc4c(N5CC6CCC(C5)N6)nc(N5CC(N6CCC(CC7CN(c8cc([C@@H](C(=O)N9C[C@H](O)C[C@H]9C(=O)N[C@@H](C)c9ccc(-c%10scnc%10C)cc9)C(C)C)on8)C7)CC6)C5)nc4c3F)c12 [Compound 180] |  | > 3000 nM
7 | CCc1cccc2cc(O)cc(-c3ncc4c(N5CC6CCC(C5)N6)nc(OC[C@]56CCCN5[C@H](COC(=O)N5CCN(c7cc([C@@H](C(=O)N8C[C@H](O)C[C@H]8C(=O)N[C@@H](C)c8ccc(-c9scnc9C)cc8)C(C)C)on7)[C@H](C)C5)CC6)nc4c3F)c12 [Compound 131, [(3S,7aR)-7a-{[(4-{3,8-diazabicyclo[3.2.1]octan-3-yl}-7-(8-ethyl-3-hydroxynaphthalen-1-yl)-8-fluoropyrido[4,3-d]pyrimidin-2-yl)oxy]methyl}-hexahydro-1H-pyrrolizin-3-yl]methyl (3R)-4-{5-[(2S)-1-[(2S,4R)-4-hydroxy-2-{[(1S)-1-[4-(4-methyl-1,3-thiazol-5-yl)phenyl]ethyl]carbamoyl}pyrrolidin-1-yl]-3-methyl-1-oxobutan-2-yl]-1,2-oxazol-3-yl}-3-methylpiperazine-1-carboxylate] | < 20% | < 600 nM
8 | CCc1cccc2cc(O)cc(-c3ncc4c(N5CC6CCC(C5)N6)nc(OC[C@]56CCCN5[C@H](COC(=O)N5CC(Oc7cc([C@H](C(=O)N8C[C@H](O)C[C@H]8C(=O)N[C@@H](C)c8ccc(-c9scnc9C)cc8)C(C)C)on7)C5)CC6)nc4c3F)c12 [Compound 128, [(3S,7aR)-7a-{[(4-{3,8-diazabicyclo[3.2.1]octan-3-yl}-7-(8-ethyl-3-hydroxynaphthalen-1-yl)-8-fluoropyrido[4,3-d]pyrimidin-2-yl)oxy]methyl}-hexahydro-1H-pyrrolizin-3-yl]methyl 3-({5-[(2R)-1-[(2S,4R)-4-hydroxy-2-{[(1S)-1-[4-(4-methyl-1,3-thiazol-5-yl)phenyl]ethyl]carbamoyl}pyrrolidin-1-yl]-3-methyl-1-oxobutan-2-yl]-1,2-oxazol-3-yl}oxy)azetidine-1-carboxylate] | 80 to 100% | < 600 nM
9 | CCc1cccc2cc(O)cc(-c3ncc4c(N5CC6CCC(C5)N6C=O)nc(OCCN5CCC(CC6CN(c7cc([C@@H](C(=O)N8C[C@H](O)C[C@H]8C(=O)N[C@@H](C)c8ccc(-c9scnc9C)cc8)C(C)C)on7)C6)CC5)nc4c3F)c12 [Compound 247] |  | > 3000 nM
10 | CCc1cccc2cc(O)cc(-c3ncc4c(N5CC6CCC(C5)N6)nc(OCCN5CC[C@H]6CN(c7cc([C@@H](C(=O)N8C[C@H](O)C[C@H]8C(=O)N[C@@H](C)c8ccc(-c9scnc9C)cc8)C(C)C)on7)C[C@H]6C5)nc4c3F)c12 (relative stereo) [Compound 70, (2S,4R)-1-[(2R*)-2-{3-[(3aR**,7aR***)-5-{2-[(4-{3,8-diazabicyclo[3.2.1]octan-3-yl}-7-(8-ethyl-3-hydroxynaphthalen-1-yl)-8-fluoropyrido[4,3-d]pyrimidin-2-yl)oxy]ethyl}-octahydro-1H-pyrrolo[3,4-c]pyridin-2-yl]-1,2-oxazol-5-yl}-3-methylbutanoyl]-4-hydroxy-N-[(1S)-1-[4-(4-methyl-1,3-thiazol-5-yl)phenyl]ethyl]pyrrolidine-2-carboxamide] |  | > 3000 nM
11 | CCc1cccc2cc(O)cc(-c3ncc4c(N5CC6CCC(C5)N6)nc(OC[C@@]56CCCN5[C@H](COC(=O)N(C)Cc5cc([C@H](C(=O)N7C[C@H](O)C[C@H]7C(=O)N[C@@H](C)c7ccc(-c8scnc8C)cc7)C(C)C)on5)CC6)nc4c3F)c12 [Compound 90, [(3S,7aS)-7a-{[(4-{3,8-diazabicyclo[3.2.1]octan-3-yl}-7-(8-ethyl-3-hydroxynaphthalen-1-yl)-8-fluoropyrido[4,3-d]pyrimidin-2-yl)oxy]methyl}-hexahydro-1H-pyrrolizin-3-yl]methyl N-({5-[(2R)-1-[(2S,4R)-4-hydroxy-2-{[(1S)-1-[4-(4-methyl-1,3-thiazol-5-yl)phenyl]ethyl]carbamoyl}pyrrolidin-1-yl]-3-methyl-1-oxobutan-2-yl]-1,2-oxazol-3-yl}methyl)-N-methylcarbamate] | 80 to 100% | < 600 nM
12 | CCc1cccc2cc(O)cc(-c3ncc4c(N5CC6CCC(C5)N6)nc(OCCN5CCC(CCOc6cc([C@@H](C(=O)N7C[C@H](O)C[C@H]7C(=O)N[C@@H](C)c7ccc(-c8scnc8C)cc7)C(C)C)on6)CC5)nc4c3F)c12 [Compound 248] |  | > 3000 nM
13 | CCc1cccc2cc(O)cc(-c3ncc4c(N5CC6CCC(C5)N6)nc(OC[C@@]56CCCN5[C@H](COC(=O)N5CCC(Oc7cc([C@@H](C(=O)N8C[C@H](O)C[C@H]8C(=O)N[C@@H](C)c8ccc(-c9scnc9C)cc8)C(C)C)on7)CC5)CC6)nc4c3F)c12 [Compound 118, [(3S,7aS)-7a-{[(4-{3,8-diazabicyclo[3.2.1]octan-3-yl}-7-(8-ethyl-3-hydroxynaphthalen-1-yl)-8-fluoropyrido[4,3-d]pyrimidin-2-yl)oxy]methyl}-hexahydro-1H-pyrrolizin-3-yl]methyl 4-({5-[(2S)-1-[(2S,4R)-4-hydroxy-2-{[(1S)-1-[4-(4-methyl-1,3-thiazol-5-yl)phenyl]ethyl]carbamoyl}pyrrolidin-1-yl]-3-methyl-1-oxobutan-2-yl]-1,2-oxazol-3-yl}oxy)piperidine-1-carboxylate] | 20 to 60% | 600 to 1000 nM

Source: US20250206732A1, “COMPOUNDS AND METHODS FOR THE TARGETED DEGRADATION OF KRAS” (Arvinas Operations, Inc., priority 2022, published 2025)
